This is an account of results in paper PMC6130675 (Pharmaceutical Biology, 2017).

For data set [1], the system named is HHV-2 TK-. Briefly: Viral CPE inhibition assay, HHV-2 TK- (mean of the two TK- isolates). In kind it is cell-based. An excerpt:
(§1) Viral CPE inhibition assay to determine KPB-100 anti-HHV-2 TK-mutant activity: HHV-2 thymidine kinase mutant (TK-minus; TK-), CI-10161 was a patient isolate obtained on 11 November 1986 from Bruce Ronnie at Burrows Welcome. It was amplified one time in MA-104 cells. HHV-2 TK- CI-1253 (18 February 1991) was a patient isolate obtained on 05 February 1992 from Bruce Ronnie at the department of medicine at the University of British Colombia and amplified one time in Vero cells. HHV-2 (E194) was the standard wild-type E194 strain from the USU archives. KPB-100 was suspended in water (100 μg/mL). It was diluted 1/2 in minimum essential medium (MEM) solution, then diluted down further in half-log dilutions in MEM solution with 50 μg/mL gentamicin and 2% foetal bovine serum. Each dilution was added to 5 wells of a 96-well plate with an overnight monolayer of 80–100% confluent Vero-76 cells. Acyclovir and cidofovir were tested in parallel as controls. Three wells of each dilution were then infected with virus, and two wells remained uninfected as toxicity controls. The MOI was approximated 0.001 for CI-1253, 0.002 for CI-10161 and 0.017 for E194. When untreated virus control wells reached near complete cytopathic effect (CPE), which was day-four post-infection in each case, plates were stained with neutral red dye (which measures cell viability, thus can be used for quantifying the vitality of both virus-infected and uninfected, drug-treated cell cultures) for approximately 2 h, then supernatant dye was removed and the incorporated dye was extracted in 50:50 Sorensen citrate buffer/ethanol, then read on a spectrophotometer at 540 nm. Optical density (OD) values were normalized based on cell and virus controls, then IC50, 50% cytotoxic concentration (CC50) values, and Selectivity Index (SI) were calculated by regression analysis.

In data set [2] the test system is HHV-2 TK- 10161. Briefly: Viral CPE inhibition assay (neutral red), HHV-2 TK- CI-10161. The class given is cell-based. Particulars: for IC50: 96 h, HHV-2 TK- 10161, Vero-76 cells, neutral red, day 4 post-infection; for SI (Selectivity Index CC50/IC50): HHV-2 TK- 10161.
Description: as §1

The test system of data set [3] is HHV-2 TK- 1253. Put plainly: Viral CPE inhibition assay (neutral red), HHV-2 TK- CI-1253. The class given is cell-based. Particulars: for IC50: 96 h, HHV-2 TK- 1253, Vero-76 cells, neutral red, day 4 post-infection; for SI (Selectivity Index CC50/IC50): HHV-2 TK- 1253.
Description: as §1

Data set [4] relates to HHV-2 E194. Briefly: Viral CPE inhibition assay (neutral red), HHV-2 E194 wild type. In kind it is cell-based. Particulars: for IC50: 96 h, HHV-2 E194 (WT), Vero-76 cells, neutral red, day 4 post-infection; for SI (Selectivity Index CC50/IC50): HHV-2 E194.
Description: as §1

Data set [5] can be described thus: Cytotoxicity in uninfected cultures (neutral red) run with the CPE inhibition assay. In kind it is cell-based. As to conditions: African green monkey, uninfected Vero-76 cells, run in parallel with each virus, read-out: CC50 (50% cytotoxic concentration of compound in uninfected cultures).
Description: as §1

The test system of data set [6] is C1008 cells. Briefly: Cytotoxicity measured by CPE in plaque reduction. Particulars: 25 μg/mL.
Data set [7] has as its system VACV WR-GFP. In kind it is cell-based, Vaccinia virus.
Data set [8] has as its system HHV-2, strain G (ATCC VR-734). Put plainly: Standard plaque reduction assay against HHV-2 WT. The class given is cell-based. (In general: Plaques are areas of infected cells; plaque reduction assays count them against a control.)
Data set [9] deals with VACV WR-GFP virus (VV.NP-S-EGFP). Briefly: microbe, parasite or virus in culture. In kind it is cell-based, Vaccinia virus. As to conditions: for IC50: HeLa, 24 h, read-out: IC50 virus spread inhibition.
Data set [10] concerns VACV (WR). Briefly: microbe, parasite or virus in culture. The class given is cell-based. As to conditions: Orthopoxvirus vaccinia, Vero 76, 72 h.
For data set [11], the system named is Vero-76 cells. Particulars: African green monkey.
The test system of data set [12] is HHV-1 (v2424). Briefly: HHV-1 virus yield reduction (VYR) assay. The class given is cell-based. Particulars: Vero 76, read-out: IC90 (concentration reducing virus yield by 1 log10 or 90%).
Where [13] appears, read: Vero 76, mean over TK- isolates 1253 and 10161, CPE inhibition, Vero-76 cells, read-out: mean IC50 against HHV-2 TK-.

Values after ≈ are worked out from the molar mass of the structure shown. Read-outs that look alike come from different tables or passages of the source. Bounds are passed on as bounds.

As for `Nc1nc2c(ncn2COCCO)c(=O)[nH]1` [Acyclovir, acyclovir], the IC50 is 12.2 µg/mL (≈ 54.2 µM) in data set [1] (setting [13]), 15 µg/mL (≈ 66.6 µM) in data set [2], 9.3 µg/mL (≈ 41.3 µM) in data set [3] and 0.49 µg/mL (≈ 2.18 µM) in [4]. The “SI (Selectivity Index CC50/IC50)” value in data set [2] is reported as more than 6.7; in data set [3], more than 11; in [4] it was more than 204. For the same molecule, the CC50 at 4 days in data set [5] is more than 100 µg/mL.

As for `COc1cc(O)cc(O[C@@H]2O[C@H](COC(=O)c3cc(OC)c(O)c(OC)c3)[C@@H](O)[C@H](O)[C@H]2O)c1` [KPB-200], the “cytotoxicity (cytopathic effect)” value in data set [6] was less than 20%. Besides, the “anti-VACV activity in virus yield inhibition assay (in words)” value in data set [7] is “exhibited anti-VACV activities”. In addition, the half-maximal inhibitory concentration (IC50) in data set [8] stood at 2.9 µg/mL (≈ 6.01 µM); in [9] (Orthopoxvirus vaccinia), 13.2 µg/mL (≈ 27.4 µM); in data set [10], 7.4 µg/mL (≈ 15.3 µM). For the same molecule, the “IC50 virus spread inhibition” value in [9] came to 13.19 µg/mL (≈ 27.3 µM).

Regarding `Nc1ccn(C[C@@H](CO)OCP(=O)(O)O)c(=O)n1` [Cidofovir, cidofovir], the IC50 in data set [1] (setting [13]) came out at 0.71 µg/mL (≈ 2.54 µM); in data set [2], 1.2 µg/mL (≈ 4.3 µM); in data set [3], 0.22 µg/mL (≈ 0.788 µM); in data set [4], 4.3 µg/mL (≈ 15.4 µM); in data set [10], 9.7 µg/mL (≈ 34.7 µM). In addition, the “SI (Selectivity Index CC50/IC50)” value in data set [2] was more than 83; in [3] it was more than 450; in [4], more than 23. Also, the CC50 at 4 days in data set [5] was more than 100 µg/mL.

As to `COc1cc([C@@H]2c3cc(OC)c(OC)cc3C[C@H](CO)[C@H]2CO[C@@H]2OC[C@@H](O)[C@H](O)[C@H]2O)ccc1O` [KPB-100, scaphopetalone], the “cytotoxicity (cytopathic effect)” value in data set [6] is less than 20%. Moreover, the IC50 is 4.5 µg/mL (≈ 8.88 µM) in data set [1] (Vero 76, read-out: mean IC50 against HHV-2 TK-, mean over TK- isolates 1253 and 10161, CPE inhibition, Vero-76 cells); 2.5 µg/mL (≈ 4.94 µM) in data set [8]; 1.63 µg/mL (≈ 3.22 µM) in data set [9] (Orthopoxvirus vaccinia); 4.5 µg/mL (≈ 8.88 µM) in data set [2]; 4.6 µg/mL (≈ 9.08 µM) in [3]; 5.4 µg/mL (≈ 10.7 µM) in [4]. The same molecule came in with an IC50 in [10] of 3.1 µg/mL (≈ 6.12 µM). Moreover, in data set [1] (mean over TK- isolates 1253 and 10161, CPE inhibition, Vero-76 cells), the “mean IC50 against HHV-2 TK-” value was determined as 4.55 µg/mL. Besides, in [7], the “anti-VACV activity in virus yield inhibition assay (in words)” value is “exhibited anti-VACV activities”. Further, the inhibition at 4 µg/mL in data set [9] (Orthopoxvirus vaccinia, 4 μg/mL, read-out: inhibition of virus spread) is approximately 100%. Besides, in data set [11], the toxicity estimated visually was 20%. In addition, the “SI (Selectivity Index CC50/IC50)” value in [2] was more than 5.6; in data set [3], more than 5.4; in data set [4], more than 4.6. In addition, in [5], the CC50 at 4 days was more than 25 µg/mL. The IC90 in [12] is 3 µg/mL (≈ 5.92 µM).

Usually IC50 stands for the concentration needed to halve the response being measured. For orientation: inhibition means the drop in the measured response relative to a control, in per cent.
